Reference: patent US20090081189A1, “Process for in vitro differentiation of neuronal stem cells or of cells derived from neuronal stem cells” (Axaron Bioscfience Ag, priority 2003, published 2009)

Test system: beta-catenin
Experiment: Western blot of beta-catenin in adult neuronal stem and progenitor cells after inhibition of the Wnt signal pathway
Type: cell-based, rat
Conditions: genistein 50 μM, undifferentiated and differentiated, densitometry of Western blot, versus cells without inhibition
Procedure: To inhibit the Wnt signal pathway, the unspecific kinase inhibitor genistein is added at a concentration of 50 μM in order to inhibit the action of glycogen synthase kinase 3 (GSK 3) (Murase S et al., 2002, Neuron, 35, 91-105).
Subsequently, a protein extract (see above, example 1) is prepared and the beta-catenin protein is identified by one dimensional gel electrophoresis and Western blotting (FIG. 3, FIG. 4).
The protein extracts of the adult neuronal stem cells are first fractionated in a 12% polyacrylamide gel in Lammli buffer consisting of 2% (w/v) sodium dodecylsulfate, 10% (v/v) glycerol, 100 mM dithiothreitol, 60 mM Tris-HCl, pH 6.8, 0.001% bromophenol blue and 5% 2-mercaptoethanol and applied to a nitrocellulose membrane (Optitran BA-S83, 0.2 μm, Schleicher & Schnell, Dassel, Germany) by the semi-dry blotting method (Kyhse-Andersen J, 1984, J Biochem Biophys Methods, 10, 203-209). […] Antibody binding is detected by way of chemiluminescent signals. […] The X-ray films are developed and measured densitometrically. […]

In the case of O=c1c(-c2ccc(O)cc2)coc2cc(O)cc(O)c12 [genistein, 4′,5,7-trihydroxyisoflavone], the “reduction of β-catenin expression (factor)” value is reported as ~2.
